Data as given in patent publication US10111854B2, “Synthesis and use of amine-containing flavonoids as potent anti-leishmanial agents” (The Hong Kong Polytechnic University, priority 2014, dated 2018).
Counter-ions that a name gives are not always drawn. Like-named read-outs stand apart in the source and are kept apart here.

Tests used:
[1] = system: L. amazonensis LV78 promastigotes; assay: Anti-promastigote activity (MTS assay), L. amazonensis LV78; format: cell-based; details: 72 hours
Outline: (§1)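 Promastigotes (1×10^5 per well) in Schneider's medium pH 6.9 with 10% FBS, exposed to serial compound concentrations for 72 h at 27 °C. Viability by MTS/PMS reduction over 4 h, OD 490 nm; IC50 derived.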

[2] = system: L. major FV1 promastigotes; assay: Anti-promastigote activity (MTS assay), L. major FV1; format: cell-based; details: Leishmania major, 72 hours
Outline: as §1

[3] = system: L. donovani HU3 promastigotes; assay: Anti-promastigote activity (MTS assay), L. donovani HU3; format: cell-based; details: 72 hours
Outline: as §1

[4] = system: L. donovani Ld39 promastigotes; assay: Anti-promastigote activity (MTS assay), L. donovani Ld39; format: cell-based; details: Leishmania donovani, 72 hours
Outline: as §1

[5] = Cytotoxicity, L929 fibroblasts; format: cell-based, mouse; details: mouse
Protocol: (§2) IC50 values of known antileishmanials and the amine-containing flavonoid monomers of the present invention to promastigotes (L. amazonensis LV78, L major FV1, L. donovani HU3, L. donovani 39), macrophages (Raw 264.7 and PEM) and mouse fibroblast (L929) were determined. The anti-promastigotes activities and cytotoxicity of the amine-containing flavonoid monomers of the invention are shown in Table 1.

[6] = system: L. amazonensis LV78 amastigotes; assay: Anti-amastigote activity in infected PEM, L. amazonensis LV78; format: cell-based; details: for IC50: infected PEM, 3 days, Giemsa
Outline: (§3)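 Macrophages elicited from mouse peritoneum were allowed to adhere overnight, then infected with late-log promastigotes at a 20:1 ratio at 37 °C. After removal of non-internalized parasites, cells were incubated with compound for 3 days. Amastigote burden was scored microscopically after Giemsa staining.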

[7] = system: L. braziliensis UA847 amastigotes; assay: Anti-amastigote activity in infected PEM, L. braziliensis UA847; format: cell-based; details: Leishmania braziliensis, 72 h, 3 days, Giemsa, read-out: Anti-amastigote activity IC50, L. baziliensis UA847
Protocol: (§4) Mouse peritoneal elicited macrophages (PEM) were obtained as previously described (2). A round cover slip (12 mm in diameter) was placed into each well of 24-well culture plate. Mouse PEM were resuspended in supplemented DMEM media containing 10% heat inactivated FBS (v/v), 100 U/mL penicillin and 100 μg/mL streptomycin and seeded into each well at a cell density of 1×10^5 cells per 500 μL. Macrophages were allowed to attach overnight. Non-adherent cells were removed by gentle washing with un-supplemented DMEM media twice. Adherent macrophages were infected with late-log promastigotes at a parasite-to-macrophage ratio of 20:1 overnight at 37° C. with 5% CO2. Non-internalized promastigotes were removed by washing twice with un-supplemented DMEM media. Infected macrophages were further incubated in 500 μL of supplemented DMEM media in the presence or absence of FM for 72 hours at 37° C. After incubation, cover slips were stained with Giemsa and the percentage of macrophages infected and number of amastigotes per 100 macrophages was enumerated.
(§5) PEM cells were infected with late-log promastigotes (L. amazonensis LV78, L. braziliensis UA847, L. donovani HU3, L. donovani 39) for 24 hr at 37° C. Infected macrophages were then treated with various antileishmanials and incubated for 3 days at 37° C. After 3 days, the cover slips were stained with Giemsa. The number of amastigotes per 100 macrophages were determined and used to calculate IC50 values.

[8] = system: L. donovani HU3 amastigotes; assay: Anti-amastigote activity in infected PEM, L. donovani HU3; format: cell-based; details: for IC50: infected PEM, 3 days, Giemsa, SSG-sensitive
Outline: as §3

[9] = system: L. donovani Ld39 amastigotes (SSG-resistant); assay: Anti-amastigote activity in infected PEM, L. donovani Ld39; format: cell-based; details: for IC50: Leishmania donovani, 72 h, infected PEM, 3 days, Giemsa, SSG-resistant
Outline: as §3

[10] = Preliminary oral bioavailability, single time point plasma concentration oral vs i.v.; format: in vivo, Balb/c mice; details: hydrochloride salt in saline, 30 minutes, dose-normalized
Protocol: FM01.HCl and FM05.HCl were administered to Balb/c mice via intravenous and passive oral administration. The blood plasma was collected at 30 minutes for LC-MSMS analysis and used for preliminary oral bioavailability screening. The corresponding plasma concentration was normalized by the administered dose for oral bioavailability calculation.
FM01 and FM05 hydrochloride salt was dissolved in saline and administered to Balb/c mice either orally or i.v. Plasma level of FM01 and FM05 was determined 30 minutes later by LC-MS and their identity confirmed by LC-MS/MS. Plasma concentration from oral feeding was divided by that obtained from i.v. administration. […] In these preliminary studies, the ratios were 45% for FM01 and 64% for FM05 (FIG. 3).

[11] = system: promastigotes (L. amazonensis LV78, L major FV1, L. donovani HU3, L. donovani 39); assay: Anti-promastigote activity, strain not given; format: cell-based; details: Leishmania amazonensis; strain not specified; read-out: IC50 against promastigotes
Protocol: Anti-promastigote activity was determined according to previous procedures (1) by Cell Titer 96® Aqueous Assay (Promega) that employed a tetrazolium compound. Promastigotes were seeded into 96-well flat bottom microtiter plate at 1×10^5 cells per well in a final volume of 100 μL medium and incubated with a series of concentrations of synthetic FM. Parasites were incubated at 27° C. for 72 hours. After 72 hours of incubation, 10 μL of MTS:PMS mixture [MTS:2-(4,5-Dimethylthiazol-2-yl-)-5-[3-(carboxymethoxy)phenyl]-2-(4-sulfophenyl)-2H-tetrazolium); PMS: phenazine methosulfate both purchased from Sigma] was added into each well of microtiter plate. The plate was then incubated at 27° C. for 4 hours for color development. After 4 hours of incubation, the OD values were determined at 490 nm using automatic microtiter plate reader (Bio-Rad).
as §2

[12] = system: amastigotes (L. amazonensis LV78, L. braziliensis UA847, L. donovani HU3, L. donovani 39); assay: Anti-amastigote activity, strain not given; format: cell-based; details: strain not specified; visceral and cutaneous Leishmania; read-out: IC50 against amastigotes
Protocol: as §4, §5

[13] = Pharmacokinetics of FM05 hydrochloride salt, oral; format: in vivo, Balb/c mice; details: male, Balb/c, mouse, plasma, 42 mg/kg, oral, saline; for half-life: po
Protocol: Based on the result of the preliminary in vivo study, FM05 hydrochloride salt was selected for further investigation. FM05 hydrochloride salt was dissolved in saline at 4 mg/ml and administered to male balb/c at 42 mg/kg. Blood plasma samples were collected at various time points for pharmacokinetics analysis (n=2 to 3 for each time point).

[14] = system: mouse fibroblast (L929); assay: Cytotoxicity, L929 fibroblasts; format: cell-based; details: mouse fibroblast L929
Protocol: as §2

IC50 ([1]; Leishmania amazonensis) | IC50 [2] | IC50 ([3]; Leishmania donovani) | IC50 ([6]; Leishmania amazonensis, 72 h) | IC50 ([8]; Leishmania donovani, 72 h) | Ratio of plasma concentration from oral feeding to i.v. administration [10] | IC50 [11] | IC50 [12] | SMILES | IC50 [4] | IC50 [5] | IC50 [9] | further results
6 ± 1.8 µM | 5.6 ± 1 µM | 1.2 ± 0.3 µM | 1.8 ± 0.6 µM | > 9 µM | 45% | < 5 µM | < 5 µM | O=c1cc(-c2ccc(OCCN3CCN(Cc4ccncc4)CC3)cc2)oc2ccccc12 [FM01, 2-(4-(2-(4-(pyridin-4-ylmethyl)piperazin-1-yl)ethoxy)phenyl)-4H-chromen-4-one] | 0.7 ± 0.1 µM | > 33 µM | > 10 µM | Selective index (a)/(b) ([6]; IC50 RAW264.7 over IC50 L. amazonensis LV78 amastigotes): 28.8; IC50 [7]: 8.4 µM
5.1 ± 1 µM | 3.9 ± 0.8 µM | 0.4 ± 0.1 µM | 4.1 ± 0.9 µM | 3.5 µM | 64% | < 5 µM | < 5 µM | O=c1cc(-c2ccc(OCCC3CCN(Cc4ccncc4)CC3)cc2)oc2ccccc12 [FM05, 2-(4-(2-(1-(pyridin-4-ylmethyl)piperidin-4-yl)ethoxy)phenyl)-4H-chromen-4-one] | 0.3 ± 0.1 µM | > 100 µM | > 10 µM | Selective index (a)/(b) ([8]; IC50 RAW264.7 over IC50 L. donovani HU3 amastigotes): 10.5; Selective index (a)/(c) ([9]; IC50 RAW264.7 over IC50 L. donovani Ld39 amastigotes): <3.7; half-life ([13]; read-out: Half-life (Distribution and absorption)): 0.417 h; half-life ([13]; read-out: Half-life (Elimination)): 3.37 h; Cmax [13]: 313 ng/mL; Tmax [13]: 2 h
 |  |  |  |  |  |  |  | O=c1cc(-c2ccc(OCCOCCN(Cc3cccnc3)Cc3cccnc3)cc2)oc2ccccc12 [FM09b.HCl] |  |  |  | IC50 [1]: 8.08 ± 1.99 µM; IC50 [3]: 12.9 ± 7.32 µM; IC50 [14]: 75.1 ± 13.6 µM; IC50 [6]: > 10 µM; IC50 [8]: > 10 µM
